US20230000813A1, “COMPOUND FOR THE TREATMENT OF BOVINE OR SWINE RESPIRATORY DISEASE” (Intervet Inc., priority 2016, published 2023)
Converted amounts (≈) assume the structure as drawn. “And” between values parts separate entries of the source, which are not always exact repeats. Equal values may be shown once.

Key:
[1] = Plasma and tissue concentrations and pharmacokinetics in infected calves (Example 9); format: in vivo, cattle calves
Experimental: (§1) Unless otherwise described the study was conducted as described in Example 8.

[2] = test system: 20 isolates of Histophilus (H.) somni; assay: MIC50/MIC90, broth-microdilution, European respiratory tract isolates; format: cell-based
Experimental: (§2) The in vitro activity of compounds against 20 isolates of Actinobacillus (A.) pleuropneumoniae, 20 of Bordetella (B.) bronchiseptica, 20 of Histophilus (H.) somni, 40 of Mannheimia (M.) haemolytica and 40 of Pasteurella (P.) multocida collected in different European countries were determined. All bacteria were isolated from the respiratory tract of swine and cattle suffering from respiratory disease. All isolates were epidemiologically unrelated as specified by the different suppliers.
(§3) The minimum inhibitory concentrations (MIC) of compounds according to the invention were determined by the broth-microdilution method according to CLSI document VET01-A4.
(§4) Microdilution trays containing a doubling dilution series of the test compounds were used for the tests.
(§5) The MIC results were interpreted according to the CLSI documents VET01-S3. The lowest concentration of compound at which no visible growth (i.e. no turbidity) detected by the unaided eye was recorded as the MIC.

[3] = test system: 40 isolates of Mannheimia (M.) haemolytica; assay: as above; format: cell-based
Experimental: as §2, §3, §4, §5

[4] = test system: 20 isolates of Bordetella (B.) bronchiseptica; assay: as above; format: cell-based
Experimental: as §2, §3, §4, §5

[5] = test system: 40 isolates of Pasteurella (P.) multocida; assay: as above; format: cell-based
Experimental: as §2, §3, §4, §5

[6] = test system: 20 isolates of Actinobacillus (A.) pleuropneumoniae; assay: as above; format: cell-based
Experimental: as §2, §3, §4, §5

[7] = test system: Mannheimia haemolytica MH 12180 (KLI-02944, BRD field isolate); assay: MIC, broth-microdilution (CLSI VET01-A4); format: cell-based; conditions: strain MH 12180
Experimental: (§6) The Minimum inhibitory concentrations (MIC) of compounds according to the invention were determined by the broth-microdilution method according to CLSI document VET01-A4.
(§7) Microdilution trays containing a doubling dilution series of the test compound were used for the tests.
as §5

[8] = test system: Pasteurella multocida PM 14426 (0006-439, BRD field isolate, macrolide-resistant); assay: MIC, broth-microdilution (CLSI VET01-A4); format: cell-based; conditions: strain PM 14426, macrolide-resistant
Experimental: as §6, §7, §5

[9] = test system: Staphylococcus aureus SA 5816 (2139, mastitis field isolate); assay: MIC, broth-microdilution (CLSI VET01-A4); format: cell-based; conditions: strain SA 5816
Experimental: as §6, §7, §5

[10] = test system: Acinetobacter baumanii AB 16496 (ATCC 19606, reference strain); assay: MIC, broth-microdilution (CLSI VET01-A4); format: cell-based; conditions: strain AB 16496
Experimental: as §6, §7, §5

[11] = test system: Staphylococcus aureus SA 6114 (ATCC 29213, reference strain); assay: MIC, broth-microdilution (CLSI VET01-A4); format: cell-based; conditions: strain SA 6114
Experimental: as §6, §7, §5

[12] = test system: Acinetobacter baumanii AB 15919 (IV369-2012, dermatitis field isolate); assay: MIC, broth-microdilution (CLSI VET01-A4); format: cell-based; conditions: strain AB 15919
Experimental: as §6, §7, §5

M. haemolytica M7/2 = assay: Mannheimia haemolytica cattle lung infection model, efficacy (Example 9); format: in vivo, cattle calves; conditions: for Food consumption, cumulated for all animals in the group: 3 calves, SC 10 mg/kg BW
Experimental: as §1
Calves were infected via intratracheal instillation of appr. 300 mL of M. haemolytica PBS suspension containing approximately 4×10^9 CFU M. haemolytica in late log phase on Day 0.
The following clinical findings were recorded: The general behavior scores of the animals before (DO am) and after infection with M. haemolytica in the different treated and control groups are indicated in FIG. 7-1: 0 =normal; 1=slightly depressive, 2=moderately depressive, 3=highly depressive, […] recumbency.
The following pathomorphological findings after section on Day 2 were recorded: After measuring the body weight and the lung weight the Lung body mass ratio was calculated as shown in FIG. 7-2. A healthy animal has a lung body mass ration around 1.7 or lower. The area percentage of lung consolidations compared to the total lung tissue and the lung score determined that is a combined score of such percentage of lung consoldiations and the grade. For the “grade” the degree of lung consolidation score was graded from 0 to 3 for each of eight lung lobes: 0 no visible changes, 1 low graded colour changes or induration, 2 medium graded induration, 3 high graded induration, hepatisation, necrosis.
The geometrical means (CFU/g tissue) of bacteriological re-isolations of Mannheimia haemolytica from lung tissue are illustrated in FIG. 7-4.

[13] = test system: Pasteurella multocida PM 6391 (ATCC 43137, reference strain); assay: MIC, broth-microdilution (CLSI VET01-A4); format: cell-based; conditions: strain PM 6391
Procedure, shortened: (§8)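 Read-out is visual: the MIC is the lowest compound concentration at which no turbidity is seen by eye. Trays carried a doubling dilution series, with interpretation following CLSI VET01-S3.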

[14] = test system: Mannheimia haemolytica MH 6357 (M7/2, reference strain, cattle infection strain); assay: MIC, broth-microdilution (CLSI VET01-A4); format: cell-based; conditions: strain MH 6357
Procedure, shortened: as §8

[15] = test system: Pasteurella multocida PM 6267 (P 2225 (L386), reference strain, mouse infection strain); assay: MIC, broth-microdilution (CLSI VET01-A4); format: cell-based; conditions: strain PM 6267
Procedure, shortened: as §8

[16] = test system: Mannheimia haemolytica MH 10720 (154, BRD field isolate); assay: MIC, broth-microdilution (CLSI VET01-A4); format: cell-based; conditions: strain MH 10720
Procedure, shortened: as §8

[17] = test system: Mannheimia haemolytica MH 6374 (ATCC 33396, reference strain); assay: MIC, broth-microdilution (CLSI VET01-A4); format: cell-based; conditions: strain MH 6374
Procedure, shortened: as §8

[18] = test system: Pasteurella multocida PM 10775 (080130003051, BRD field isolate); assay: MIC, broth-microdilution (CLSI VET01-A4); format: cell-based; conditions: strain PM 10775
Procedure, shortened: as §8

[19] = test system: Mannheimia haemolytica MH 12587 (1071, BRD field isolate, macrolide-resistance: erm+, E+); assay: MIC, broth-microdilution (CLSI VET01-A4); format: cell-based; conditions: strain MH 12587, macrolide-resistant
Procedure, shortened: as §8

[20] = test system: Pasteurella multocida PM 12080 (IV102277-0093, BRD field isolate); assay: MIC, broth-microdilution (CLSI VET01-A4); format: cell-based; conditions: strain PM 12080
Procedure, shortened: as §8

[21] = SC single 10 mg/kg (C.105, C.189 in 10% Poloxamer 188; C.326 in 30% Captisol), individual animals and mean
[22] = SC single 10 mg/kg (C.105, C.189 in 10% Poloxamer 188; C.326 in 30% Captisol), individual animals and mean, 10 mg/kg
[23] = plasma, SC 10 mg/kg, mean, Phoenix WinNonlin
[24] = calves infected with M. haemolytica, SC, single, 10 mg/kg BW, x = number of animals, n = total in group

SMILES: COCCNCc1ccc(C#Cc2ccc(C(=O)N[C@H](C(=O)NO)[C@@H](C)O)cc2)s1 [C. 189]
- Concentration, Plasma 48 h [1, 21]: BLQ
- Concentration, Tissue (48 h) ELF [1, 21]: BLQ
- Concentration, Tissue (48 h) Liver [1, 21]: 22.5 ng/mL
- Concentration, Tissue (48 h) Lung [1, 21]: BLQ
- Concentration, Tissue (48 h) Muscle [1, 21]: BLQ
- Concentration, Plasma 0.5 h [1, 22]: 916 ng/mL and 892 ng/mL and 1350 ng/mL
- Concentration, Plasma 2 h [1, 22]: 465 ng/mL and 663 ng/mL and 788 ng/mL
- Concentration, Plasma 4 h [1, 22]: 433 ng/mL and 300 ng/mL and 430 ng/mL
- Concentration, Plasma 6 h [1, 22]: 339 ng/mL and 293 ng/mL and 289 ng/mL
- Concentration, Plasma 24 h [1, 22]: 31.3 ng/mL and 20.3 ng/mL and 21.8 ng/mL
- Concentration, Tissue (48 h) Kidney [1, 22]: BLQ (2×) and 25.1 ng/mL
- Concentration, Tissue (48 h) Liver [1, 22]: BLQ
- AUClast [1, 23]: 6236 ng·h/mL
- CI_F_obs [1, 23]: 1565 mL/h/kg
- Cmax [1, 23]: 1053 ng/mL
- HL_Lambda_z (Half life time) [1, 23]: 4.98 h
- MRTlast (Mean retention time till last measured value) [1, 23]: 4.75 h
- Tmax [1, 23]: 30 min
- Vz_F_obs [1, 23]: 11.2 L/kg
- Concentration, Plasma 0 h ([1]; predose, SC single 10 mg/kg (C.105, C.189 in 10% Poloxamer 188; C.326 in 30% Captisol), individual animals and mean): BLQ
- MIC50 [2]: 0.032 µg/mL (≈ 0.0742 µM)
- MIC90 [2]: 0.063 µg/mL (≈ 0.146 µM)
- MIC50 [3]: 0.25 µg/mL (≈ 0.579 µM)
- MIC90 [3]: 0.5 µg/mL (≈ 1.16 µM)
- MIC50 [4]: >16 µg/mL
- MIC90 [4]: >16 µg/mL
- MIC50 [5]: 0.032 µg/mL (≈ 0.0742 µM)
- MIC90 [5]: 0.063 µg/mL (≈ 0.146 µM)
- MIC50 [6]: 0.25 µg/mL (≈ 0.579 µM)
- MIC90 [6]: 0.25 µg/mL (≈ 0.579 µM)
- MIC [7]: 0.25 µg/mL (≈ 0.579 µM)
- MIC [8]: 0.032 µg/mL (≈ 0.0742 µM)
- MIC [9]: >16 µg/mL
- MIC [10]: >16 µg/mL
- MIC [11]: >16 µg/mL
- MIC [12]: >16 µg/mL
- Food consumption, cumulated for all animals in the group (M. haemolytica M7/2; D 0 am, after infection and treatment): 4800 g
- Food consumption, cumulated for all animals in the group (M. haemolytica M7/2; D 0 pm): 4800 g
- Food consumption, cumulated for all animals in the group (M. haemolytica M7/2; D +1 am): 4800 g
- Food consumption, cumulated for all animals in the group (M. haemolytica M7/2; D +1 pm): 4800 g
- Food consumption, cumulated for all animals in the group (M. haemolytica M7/2; D −1 (before infection)): 4800 g
- Bacteriological Cure (x of n) (M. haemolytica M7/2; [24]): 1/3
- Survival (x of n) (M. haemolytica M7/2; [24]): 3/3
- efficacy against an artificial lung infection with M. haemolytica M7/2 in the calf (M. haemolytica M7/2; tested dosage of 10 mg/kg, conclusion in words): effective
- MIC [13]: 0.25 µg/mL (≈ 0.579 µM)
- MIC [14]: 0.5 µg/mL (≈ 1.16 µM)
- MIC [15]: 0.5 µg/mL (≈ 1.16 µM)
- MIC [16]: 0.125 µg/mL (≈ 0.29 µM)
- MIC [17]: 0.25 µg/mL (≈ 0.579 µM)
- MIC [18]: ≤0.016 µg/mL
- MIC [19]: 1 µg/mL (≈ 2.32 µM)
- MIC [20]: 0.063 µg/mL (≈ 0.146 µM)
